Test results taken from ChEMBL document CHEMBL5678818, “Discovery of potent SOS1 inhibitors that block RAS activation via disruption of the RAS-SOS1 interaction” (Proc Natl Acad Sci U S A, 2019).

Experiments:
[1] = biological target: T1, Serine/threonine-protein kinase Sgk2 (Homo sapiens) (UniProt Q9HBY8); assay: Inhibition of SGK2 (unknown origin) assessed as residual activity at 100 nM by KINOMEscan analysis relative to control
T1 sequence (whole entry): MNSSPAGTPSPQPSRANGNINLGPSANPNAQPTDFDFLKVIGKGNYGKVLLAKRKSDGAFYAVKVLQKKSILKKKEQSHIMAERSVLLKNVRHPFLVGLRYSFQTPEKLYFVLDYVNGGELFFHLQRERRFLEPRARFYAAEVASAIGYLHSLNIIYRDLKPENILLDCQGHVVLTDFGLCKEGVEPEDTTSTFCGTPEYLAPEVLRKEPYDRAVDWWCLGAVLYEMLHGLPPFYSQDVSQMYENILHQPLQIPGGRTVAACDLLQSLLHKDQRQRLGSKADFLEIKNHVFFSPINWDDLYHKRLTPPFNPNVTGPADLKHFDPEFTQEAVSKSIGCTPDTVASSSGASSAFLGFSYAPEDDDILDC

[2] = biological target: Serine/threonine-protein kinase PAK 3 (Homo sapiens) (UniProt O75914); assay: Inhibition of PAK3 (unknown origin) assessed as residual activity at 100 nM by KINOMEscan analysis relative to control
[3] = biological target: T2, Serine/threonine-protein kinase haspin (Homo sapiens) (UniProt Q8TF76); assay: Inhibition of HASPIN (unknown origin) assessed as residual activity at 100 nM by KINOMEscan analysis relative to control
T2 sequence (whole entry): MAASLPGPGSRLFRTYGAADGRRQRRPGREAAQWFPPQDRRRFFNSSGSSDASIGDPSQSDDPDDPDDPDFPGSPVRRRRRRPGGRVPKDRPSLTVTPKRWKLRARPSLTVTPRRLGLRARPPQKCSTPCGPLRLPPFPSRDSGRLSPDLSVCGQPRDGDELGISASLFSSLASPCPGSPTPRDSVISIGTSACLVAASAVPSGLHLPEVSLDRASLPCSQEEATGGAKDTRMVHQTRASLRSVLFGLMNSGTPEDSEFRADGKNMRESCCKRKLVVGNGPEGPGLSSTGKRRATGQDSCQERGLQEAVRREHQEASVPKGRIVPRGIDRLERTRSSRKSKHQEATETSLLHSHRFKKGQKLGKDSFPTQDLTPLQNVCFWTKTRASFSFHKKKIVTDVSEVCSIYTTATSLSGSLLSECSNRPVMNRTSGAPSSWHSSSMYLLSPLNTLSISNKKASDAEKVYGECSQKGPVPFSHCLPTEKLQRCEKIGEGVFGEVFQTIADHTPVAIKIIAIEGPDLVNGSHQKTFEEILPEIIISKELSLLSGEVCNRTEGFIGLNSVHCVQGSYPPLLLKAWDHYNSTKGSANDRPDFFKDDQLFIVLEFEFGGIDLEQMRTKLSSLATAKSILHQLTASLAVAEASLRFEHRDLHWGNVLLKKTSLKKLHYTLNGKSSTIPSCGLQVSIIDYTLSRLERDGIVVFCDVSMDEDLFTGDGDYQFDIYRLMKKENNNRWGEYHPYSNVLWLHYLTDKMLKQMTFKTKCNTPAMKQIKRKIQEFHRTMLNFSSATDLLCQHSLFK

[4] = biological target: Rho-associated protein kinase 1 (Homo sapiens) (UniProt Q13464); assay: Inhibition of ROCK1 (unknown origin) assessed as residual activity at 100 nM by KINOMEscan analysis relative to control
[5] = biological target: T3, Non-receptor tyrosine-protein kinase TNK1 (Homo sapiens) (UniProt Q13470); assay: Inhibition of TNK1 (unknown origin) assessed as residual activity at 100 nM by KINOMEscan analysis relative to control
T3 sequence (whole entry): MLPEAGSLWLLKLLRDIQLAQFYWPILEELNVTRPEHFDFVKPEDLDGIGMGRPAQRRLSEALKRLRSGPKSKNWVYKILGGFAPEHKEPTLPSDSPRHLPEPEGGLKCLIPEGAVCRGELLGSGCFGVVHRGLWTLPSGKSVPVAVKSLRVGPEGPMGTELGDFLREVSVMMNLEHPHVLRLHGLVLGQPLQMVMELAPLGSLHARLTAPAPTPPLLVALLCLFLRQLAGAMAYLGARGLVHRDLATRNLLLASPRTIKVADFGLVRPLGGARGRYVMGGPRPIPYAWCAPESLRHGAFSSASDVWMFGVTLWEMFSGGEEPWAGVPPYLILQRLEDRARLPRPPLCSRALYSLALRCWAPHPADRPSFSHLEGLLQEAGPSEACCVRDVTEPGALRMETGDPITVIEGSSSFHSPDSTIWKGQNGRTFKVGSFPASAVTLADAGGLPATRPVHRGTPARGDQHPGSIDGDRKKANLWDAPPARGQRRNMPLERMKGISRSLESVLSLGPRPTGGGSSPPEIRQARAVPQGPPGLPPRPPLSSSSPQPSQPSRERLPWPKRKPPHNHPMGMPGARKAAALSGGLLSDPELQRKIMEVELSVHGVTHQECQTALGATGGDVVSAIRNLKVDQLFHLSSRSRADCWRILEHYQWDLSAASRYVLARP

Homo sapiens = organism: Homo sapiens; assay: Inhibition of N-terminal GST-tagged recombinant human SOS1 N879A mutant (564 to 1049 residues) expressed in Escherichia coli assessed as reduction in KRAS G12C mutant activation at 10 uM by HTRF analysis relative to control
[6] = biological target: Ribosomal protein S6 kinase alpha-1 (Homo sapiens) (UniProt Q15418); assay: Inhibition of N-terminal RSK1 kinetic domain 1 (unknown origin) assessed as residual activity at 100 nM by KINOMEscan analysis relative to control
Ribosomal protein S6 kinase alpha-1 (Homo sapiens), sequence (Q15418 whole entry, the tested form may be a part): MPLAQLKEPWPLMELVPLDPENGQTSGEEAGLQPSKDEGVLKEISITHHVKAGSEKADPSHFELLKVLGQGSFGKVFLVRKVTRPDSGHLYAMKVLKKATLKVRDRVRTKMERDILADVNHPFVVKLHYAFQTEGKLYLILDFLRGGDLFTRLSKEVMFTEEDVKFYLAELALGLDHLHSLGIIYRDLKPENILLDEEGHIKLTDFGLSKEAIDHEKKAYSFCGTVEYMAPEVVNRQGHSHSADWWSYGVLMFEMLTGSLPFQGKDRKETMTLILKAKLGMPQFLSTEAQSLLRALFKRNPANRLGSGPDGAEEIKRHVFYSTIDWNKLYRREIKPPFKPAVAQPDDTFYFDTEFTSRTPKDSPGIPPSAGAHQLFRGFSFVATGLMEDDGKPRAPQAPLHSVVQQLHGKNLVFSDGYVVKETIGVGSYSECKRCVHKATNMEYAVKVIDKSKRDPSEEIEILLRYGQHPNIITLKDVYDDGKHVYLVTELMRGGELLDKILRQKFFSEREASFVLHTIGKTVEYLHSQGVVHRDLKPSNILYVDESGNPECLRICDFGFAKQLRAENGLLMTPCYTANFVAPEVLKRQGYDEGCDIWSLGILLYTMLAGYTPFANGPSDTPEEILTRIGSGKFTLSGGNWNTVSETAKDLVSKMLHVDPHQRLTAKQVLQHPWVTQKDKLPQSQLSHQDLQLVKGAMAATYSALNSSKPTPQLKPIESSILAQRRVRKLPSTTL

Serine/threonine-protein kinase PAK 3 (Homo sapiens), sequence (O75914 whole entry, looked up): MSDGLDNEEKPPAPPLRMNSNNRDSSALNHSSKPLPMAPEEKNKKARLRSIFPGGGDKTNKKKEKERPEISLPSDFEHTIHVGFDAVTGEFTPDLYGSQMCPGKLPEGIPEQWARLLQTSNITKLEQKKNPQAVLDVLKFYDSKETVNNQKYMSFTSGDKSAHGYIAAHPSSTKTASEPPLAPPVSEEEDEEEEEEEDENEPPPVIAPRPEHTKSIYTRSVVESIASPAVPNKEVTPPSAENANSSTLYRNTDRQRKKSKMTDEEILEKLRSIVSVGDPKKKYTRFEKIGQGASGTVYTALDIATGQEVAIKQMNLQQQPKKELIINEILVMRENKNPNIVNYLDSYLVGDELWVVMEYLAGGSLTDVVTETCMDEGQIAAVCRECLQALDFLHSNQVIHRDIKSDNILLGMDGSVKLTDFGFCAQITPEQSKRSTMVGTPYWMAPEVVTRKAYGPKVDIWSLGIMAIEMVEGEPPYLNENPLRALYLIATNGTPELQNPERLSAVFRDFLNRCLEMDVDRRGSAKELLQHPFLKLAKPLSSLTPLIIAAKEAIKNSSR
Rho-associated protein kinase 1 (Homo sapiens), sequence (Q13464 2-1354 limits assumed): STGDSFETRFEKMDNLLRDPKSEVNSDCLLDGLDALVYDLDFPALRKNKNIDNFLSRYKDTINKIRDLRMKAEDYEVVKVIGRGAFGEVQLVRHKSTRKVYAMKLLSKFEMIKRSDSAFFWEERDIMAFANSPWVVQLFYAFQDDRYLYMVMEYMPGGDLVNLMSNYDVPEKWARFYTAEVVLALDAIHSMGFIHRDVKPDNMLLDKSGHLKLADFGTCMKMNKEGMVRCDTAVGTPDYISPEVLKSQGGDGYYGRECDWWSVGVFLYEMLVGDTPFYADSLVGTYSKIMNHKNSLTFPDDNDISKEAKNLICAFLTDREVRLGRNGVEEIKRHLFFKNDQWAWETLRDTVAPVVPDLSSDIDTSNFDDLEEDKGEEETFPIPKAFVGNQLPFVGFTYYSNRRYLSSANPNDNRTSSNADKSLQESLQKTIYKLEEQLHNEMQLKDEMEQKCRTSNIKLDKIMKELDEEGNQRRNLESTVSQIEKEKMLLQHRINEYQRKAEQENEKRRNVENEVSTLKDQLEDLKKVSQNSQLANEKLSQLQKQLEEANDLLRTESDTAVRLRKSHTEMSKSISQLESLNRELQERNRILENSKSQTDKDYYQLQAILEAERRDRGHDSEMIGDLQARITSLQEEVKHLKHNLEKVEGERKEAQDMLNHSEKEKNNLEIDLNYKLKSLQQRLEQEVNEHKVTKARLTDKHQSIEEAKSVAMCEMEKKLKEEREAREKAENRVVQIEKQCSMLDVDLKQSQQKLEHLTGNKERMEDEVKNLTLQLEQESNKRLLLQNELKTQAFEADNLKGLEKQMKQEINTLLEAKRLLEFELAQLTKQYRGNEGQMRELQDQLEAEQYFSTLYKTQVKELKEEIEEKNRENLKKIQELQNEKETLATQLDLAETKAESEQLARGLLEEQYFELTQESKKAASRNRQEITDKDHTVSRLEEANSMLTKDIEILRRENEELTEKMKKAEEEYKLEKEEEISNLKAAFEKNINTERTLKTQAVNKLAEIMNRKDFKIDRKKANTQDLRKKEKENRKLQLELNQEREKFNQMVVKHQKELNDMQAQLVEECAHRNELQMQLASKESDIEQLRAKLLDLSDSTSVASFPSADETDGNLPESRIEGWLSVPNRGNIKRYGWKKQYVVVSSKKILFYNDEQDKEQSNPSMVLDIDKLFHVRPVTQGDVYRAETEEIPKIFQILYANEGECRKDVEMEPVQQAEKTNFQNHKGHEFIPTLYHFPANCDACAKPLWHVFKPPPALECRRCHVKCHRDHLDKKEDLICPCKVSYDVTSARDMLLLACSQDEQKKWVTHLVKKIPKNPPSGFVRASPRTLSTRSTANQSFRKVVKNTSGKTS

Molecule `COc1cc2ncnc(N[C@H](C)c3cccc4ccccc34)c2cc1OC` has an Activity [1] of 97%, an Activity [2] of 74% and an Activity [3] of 95%. The Activity [4] was 77%, the Activity [5] was 86% and the inhibition (Homo sapiens) was 37%. For the same molecule, the Activity [6] was 90%.
